Data: patent US20210276967A1 (OSPEDALE SAN RAFFAELE S.R.L., priority 2018, published 2021)

Columns and labels:
[1] = system: HBV (HBeAg, surrogate of cccDNA biogenesis); test: In vitro HBV infection of HepG2-NTCP cells, extracellular HBeAg ELISA (establishment of HBV cccDNA); type: cell-based; conditions: Hepatitis B virus, 144 h, 6 days, read-out: HBeAg* inhibition EC50 (Mean ± StD, μM) *surrogate of cccDNA biogenesis
Excerpt: HepG2-NTCP hepatoma cell line was used to conduct the infection experiments. HepG2-NTCP was obtained by ectopic expression in HepG2 cells of the human Sodium Taurocholate Cotransporting Polypeptide receptor (hNTCP) using a lentiviral vector expressing human NTCP (Seeger et al., Molecular Therapy-Nucleic Acids, 2014). hNTCP was recently identified as HBV receptor (Yan H. et al., Elife. Nov. 13, 2012; 3). The complete viral life cycle of HBV could be obtained in the HepG2-NTCP cell line. HepG2-NTCP cells were maintained in DMEM, supplemented with 10% of FBS, 1% glutamine and 1% penicillin/streptomycin.
The ability of compounds to inhibit the establishment of HBV cccDNA in infected cells was investigated in an in vitro model of HBV infection. For this purpose HepG2-NTCP cell line, engineered to stably express the HBV receptor human sodium taurocholate cotrasporting polypeptide (hNTCP), was used and HBV particles were produced in HepAD38 following standard published procedure (Hepatitis B methods and protocols, Guo H., Cuconati, A.; 2017; Humana press). In detail HepG2-NTCP were seeded at 20.000 cells/well in collagen coated 96 multiwell plates. […] The ability of compounds to inhibit the establishment of HBV cccDNA was evaluated by quantification of extracellular HBeAg with ELISA (Elisa Kit HBE.CE. Manufacturer: DIA.PRO). […]

HBV = HBV inhibition in HepAD38 cells, extracellular HBV DNA by direct qPCR; type: cell-based, hepatitis B virus; conditions: Hepatitis B virus
Excerpt: HepAD38 cell line (Ladner et al., Antimicrob Agents Chemother, 1997, 41, 1715-20) was used for HBV inhibition assays. HepAD38 is a subclone, derived from hepatoblastoma cell line HepG2 (ATCC® Number: HB-8065™), that expresses HBV genome under the transcriptional control of a tetracycline-responsive promoter in a TET-OFF system: addition of tetracycline (TET) or doxycycline suppresses HBV replication, while its removal switches on the process allowing HBV viral particles release in the cell supernatant. HepAD38 cell line is maintained in DMEM/F12, supplemented with 10% of fetal bovine serum, 1% of glutamine, 1% of penicillin/streptomycin, 0.4 mg/ml G418 and 0.3 ug/ml tetracycline. For the HBV inhibition assay, doxycycline-free medium is used in order to allow virion production.
HBV inhibition activity in vitro was performed in 96 multiwell plates. During the initial (primary) screening compounds were first tested in triplicates at concentrations of 0.1 μM, 0.5 μM and 1 μM. For selected compounds, an 8-point dose-response curve was obtained using 1:2 serial dilutions (starting from 2.5 μM, 1.25 μM or 0.4 μM, depending on the degree of inhibition observed during the primary screening). From the dose-response curves, half maximal effective concentration (EC50) could be calculated (see also below).
In more detail, compounds—typically dissolved in DMSO stock solutions—were diluted to 2× the final desired concentration in 100 μl of the above medium (without doxycycline) and plated in three replicates in the 96-well plates.
Simultaneously, HepAD38 cells—extensively pre-washed in tetracycline-free medium in order to induce HBV production—were suspended at 2*10^4 cells in 100 μl of tetracycline-free medium and added to each well of the plate, to yield a final assay volume of 200 μl.
DMSO, used for stock solutions and compounds dilutions, is always present in the assays at a final concentration of 0.5%.
Plates were then incubated 96 hours at 37° C. and then subjected to cell viability assays and extracellular HBV quantification, in order to evaluate both the cytotoxic potential and the anti-viral activity of compounds.
Cytotoxicity was assessed by a commercial fluorescence assay that measures the metabolic activity of cells, directly related to cell viability (Cell Titer Blue, Promega). For each compound, cytotoxicity was evaluated at the same concentration employed to evaluate its anti-HBV activity. Anti-HBV activity was evaluated by quantification of extracellular HBV DNA with direct qPCR. In particular, supernatant was collected and centrifuged for cell debris clarification, viral DNA was extracted from virions by addition of lysis buffer (1 mM 1,4-dithiothreitol, 0.2% sodium dodecyl sulphate) and incubated at 95° C. for 10 min. Samples were then diluted 1:40 and real time PCR amplification was performed with SYBR green assay (Power SYBR™ Green PCR Master Mix-Thermo Fisher Scientific) and specific HBV primer (HBV-DF:5′-[…]-3′ (SEQ ID No. 1), HBV-DR:5′-[…]-3′ (SEQ ID No. 2)).
All HBV inhibition or antiviral activity data are typically reported in percent (%) relative to a non-treated reference sample. Excel and Graphpad Prism programs are typically used for data elaboration and EC50 calculation.

SMILES | EC50 [1] [µM] | EC50 (HBV; HepAD38, 8-point dose-response, read-out: HBV inh EC50) [nM] | inhibition at 0.5 µM (HBV; 0.5 μM, HepAD38, 96 hours, read-out: HBV inhibition % (conc μM)) [%]
Cc1cc(N)c(S(N)(=O)=O)cc1C(=O)Nc1cc(F)c(F)c(F)c1 [Example E17, 4-amino-2-methyl-5-sulfamoyl-N-(3,4,5-trifluorophenyl)benzamide] | 0.147 | < 1000 | 
Nc1ccc(C(=O)Nc2cc(F)c(F)c(F)c2)cc1S(N)(=O)=O [Example E3, 4-amino-3-sulfamoyl-N-(3,4,5-trifluorophenyl)benzamide] |  |  | > 50
